Tests used:
CLK4 = assay: KINOMEscan; settings: 50000 nM
Description: KINOMEscan™ selectivity screen
(§1) The assay was perfor med at DiscoveRx Corporation according the methods published previously5. Briefly, Kinase-tagged T7 phage strains were grown in parallel in an E. coli host derived from the BL21 strain. E. coli were grown to log-phase and infected with T7 phage from a frozen stock and incubated with shaking at 32°C until lysis (90-150 minutes). The kinases were produced in HEK-293 cells and subsequently tagged with DNA for qPCR detection. Streptavidin-coated magnetic beads were treated with biotinylated small molecule ligands to generate affinity resins for kinase
(§2) inhibitor or DMSO control was performed in polypropylene 384-well plates for 1 hr at room temperature. After wash with PBS buffer containing 0.05% Tween 20, the beads were incubated in elution buffer (PBS containing 0.05 % Tween 20 and 0.5 μM non-biotinylated affinity ligand) for 30 minutes at room temperature. The kinase concentration in the eluates was measured by qPCR.

VPS34 = assay: KINOMEscan; settings: 50000 nM
Description: KINOMEscan™ selectivity screen
as §1, §2

MYO3B = assay: KINOMEscan; settings: 50000 nM
Description: KINOMEscan™ selectivity screen
as §1, §2

[1] = system: JAK1(JH2domain-pseudokinase); assay: KINOMEscan; settings: 50000 nM
Description: KINOMEscan™ selectivity screen
as §1, §2

Akt = system: T1, Akt; assay: In vitro phosphorylation of Akt S473 by MAPKAP kinase 2; type: biochemical; settings: inactive Akt, PE/PC/PS/PIP3 vesicles
T1 construct: purchased Millipore 14-279

SLK = assay: KINOMEscan; settings: 50000 nM
Description: KINOMEscan™ selectivity screen
as §1, §2

ALK(C1156Y) = assay: KINOMEscan; settings: 50000 nM
Description: KINOMEscan™ selectivity screen
as §1, §2

INSR = assay: KINOMEscan; settings: 50000 nM
Description: KINOMEscan™ selectivity screen
(§3) The assay was perfor med at DiscoveRx Corporation according the methods published previously5. […] The kinases were produced in HEK-293 cells and subsequently tagged with DNA for qPCR detection. Streptavidin-coated magnetic beads were treated with biotinylated small molecule ligands to generate affinity resins for kinase
as §2

SRMS = assay: KINOMEscan; settings: 50000 nM
Description: (§4) Briefly, Kinase-tagged T7 phage strains were grown in parallel in an E. coli host derived from the BL21 strain. E. coli were grown to log-phase and infected with T7 phage from a frozen stock and incubated with shaking at 32°C until lysis (90-150 minutes). The kinases were produced in HEK-293 cells and subsequently tagged with DNA for qPCR detection. Streptavidin-coated magnetic beads were treated with biotinylated small molecule ligands to generate affinity resins for kinase
as §2

FGFR2 = assay: KINOMEscan; settings: 50000 nM
Description: KINOMEscan™ selectivity screen
as §1, §2

CAMK1G = assay: KINOMEscan; settings: 50000 nM
Description: KINOMEscan™ selectivity screen
as §4, §2

EPHB6 = assay: KINOMEscan; settings: 50000 nM
Description: KINOMEscan™ selectivity screen
as §1, §2

PCTK1 = assay: KINOMEscan; settings: 50000 nM
Description: KINOMEscan™ selectivity screen
as §4, §2

ADCK3 = assay: KINOMEscan; settings: 50000 nM
Description: KINOMEscan™ selectivity screen
as §1, §2

EGFR(L858R) = assay: KINOMEscan; settings: 50000 nM
Description: KINOMEscan™ selectivity screen
as §1, §2

FLT3 = assay: KINOMEscan; settings: 50000 nM
Description: KINOMEscan™ selectivity screen
as §1, §2

HIPK1 = assay: KINOMEscan; settings: 50000 nM
Description: KINOMEscan™ selectivity screen
as §4, §2

DCAMKL3 = assay: KINOMEscan; settings: 50000 nM
Description: KINOMEscan™ selectivity screen
as §4, §2

MERTK = assay: KINOMEscan; settings: 50000 nM
Description: KINOMEscan™ selectivity screen
as §1, §2

ACVR2B = assay: KINOMEscan; settings: 50000 nM
Description: KINOMEscan™ selectivity screen
as §1, §2

MARK3 = assay: KINOMEscan; settings: 50000 nM
Description: KINOMEscan™ selectivity screen
as §1, §2

FER = assay: KINOMEscan; settings: 50000 nM
Description: as §4, §2

p38-beta = assay: KINOMEscan; settings: 50000 nM
Description: KINOMEscan™ selectivity screen
as §1, §2

MAP3K1 = assay: KINOMEscan; settings: 50000 nM
Description: KINOMEscan™ selectivity screen
as §4, §2

TRKB = assay: KINOMEscan; settings: 50000 nM
Description: KINOMEscan™ selectivity screen
as §3, §2

[2] = system: ABL1(H396P)-phosphorylated; assay: KINOMEscan; settings: 50000 nM
Description: KINOMEscan™ selectivity screen
as §1, §2

CSNK1G3 = assay: KINOMEscan; settings: 50000 nM
Description: KINOMEscan™ selectivity screen
as §4, §2

MAPKAPK2 = assay: KINOMEscan; settings: 50000 nM
Description: KINOMEscan™ selectivity screen
as §1, §2

RAF1 = assay: KINOMEscan; settings: 50000 nM
Description: KINOMEscan™ selectivity screen
as §1, §2

CSNK1G1 = assay: KINOMEscan; settings: 50000 nM
Description: KINOMEscan™ selectivity screen
as §1, §2

SgK110 = assay: KINOMEscan; settings: 50000 nM
Description: KINOMEscan™ selectivity screen
as §1, §2

FGFR4 = assay: KINOMEscan; settings: 50000 nM
Description: KINOMEscan™ selectivity screen
as §3, §2

S6K1 = assay: KINOMEscan; settings: 50000 nM
Description: KINOMEscan™ selectivity screen
as §1, §2

mTORC2 = assay: Western blot of mTOR S2481 phosphorylation; type: cell-based, Mouse; settings: all concentrations tested including 80 µM
Description: Neuro 2A cells were seeded in 12-well plates in DMEM containing 5% FBS for 24 hr.
After overnight serum starvation (in 0% FBS DMEM), cells were incubated for 30 min at 37 °C with G7 or LY294002 or Torin 1 (Sigma Aldrich) at various concentrations, or DMSO control. IGF-1 was added to each well at a final concentration of 100 ng/mL. After 30-min incubation cells were washed with cold PBS and lysed with 50 µL lysis buffer containing 1% Triton X-100 and protease/phosphatase inhibitors (Cell Signaling Technology) or RIPA buffer (Santa Cruz Biotech). Samples were electrophoresed in 4–12% Bis-Tris gels (Life Technologies) at 150 V using MOPS SDS running buffer. Proteins were transferred electrophoretically to a PVDF or nitrocellulose membrane. For detection of cleaved […]
caspase 3 a Trans-Blot Turbo Transfer System (Bio-Rad, 25 V for 25 min) with PVDF membrane were used. […]
anti- GAPDH (14C10) antibody (#2118) (all antibodies were from Cell Signaling Technology unless indicated, 1:1000 dilution was used) at 4°C overnight, washed three times with TBS-T, then incubated with peroxidase-conjugated secondary antibody (Sigma-Aldrich) for 1 hr at room temperature. […] Band intensity was quantitated using Kodak 1D imaging analysis software. […]

SGK3 = assay: KINOMEscan; settings: 50000 nM
Description: KINOMEscan™ selectivity screen
as §1, §2

ACVR1B = assay: KINOMEscan; settings: 50000 nM
Description: KINOMEscan™ selectivity screen
as §1, §2

LTK = assay: KINOMEscan; settings: 50000 nM
Description: KINOMEscan™ selectivity screen
as §1, §2

GRK2 = assay: KINOMEscan; settings: 50000 nM
Description: KINOMEscan™ selectivity screen
as §4, §2

MARK1 = assay: KINOMEscan; settings: 50000 nM
Description: KINOMEscan™ selectivity screen
as §3, §2

With Oc1cc(-c2ccccc2)c2ccccc2n1 [G7, 4-phenylquinolin-2(1H)-one] the “Percent Control” value (CLK4) was 80%, the “Percent Control” value (VPS34) was 35% and the “Percent Control” value (MYO3B) was 100%. For the same compound, the “Percent Control” value [1] was 5.5%, the “in vitro phosphorylation of S473 by MAPKAP kinase 2” value (Akt) was “impaired” and the “Percent Control” value (SLK) was 89%. For the same compound, the “Percent Control” value (ALK(C1156Y)) was 80%, the “Percent Control” value (INSR) was 56% and the “Percent Control” value (SRMS) was 88%. For the same compound, the “Percent Control” value (FGFR2) was 80%, the “Percent Control” value (CAMK1G) was 77% and the “Percent Control” value (EPHB6) was 14%. For the same compound, the “Percent Control” value (PCTK1) was 91%, the “Percent Control” value (ADCK3) was 92% and the “Percent Control” value (EGFR(L858R)) was 83%. The “Percent Control” value (FLT3) was 13%, the “Percent Control” value (HIPK1) was 74% and the “Percent Control” value (DCAMKL3) was 91%. The “Percent Control” value (MERTK) was 42%, the “Percent Control” value (ACVR2B) was 100% and the “Percent Control” value (MARK3) was 87%. For the same compound, the “Percent Control” value (FER) was 84%, the “Percent Control” value (p38-beta) was 97% and the “Percent Control” value (MAP3K1) was 71%. The “Percent Control” value (TRKB) was 56%, the “Percent Control” value [2] was 66% and the “Percent Control” value (CSNK1G3) was 71%. The “Percent Control” value (MAPKAPK2) was 100%, the “Percent Control” value (RAF1) was 95% and the “Percent Control” value (CSNK1G1) was 89%. The “Percent Control” value (SgK110) was 100%, the “Percent Control” value (FGFR4) was 96% and the “Percent Control” value (S6K1) was 96%. The “phosphorylation of mTORC2 at S2481” value (mTORC2) was “did not inhibit”, the “Percent Control” value (SGK3) was 83% and the “Percent Control” value (ACVR1B) was 100%. The “Percent Control” value (LTK) was 95%, the “Percent Control” value (GRK2) was 91% and the “Percent Control” value (MARK1) was 76%.

Reference: publication PMC5601486, “Identification of 4-phenylquinolin-2(1H)-one as a specific allosteric inhibitor of Akt” (Scientific Reports, 2017)
